Assay results published in PMC8113213, “Physiologically based kinetic modelling based prediction of in vivo rat and human acetylcholinesterase (AChE) inhibition upon exposure to diazinon” (Archives of Toxicology, 2021).
Like-named read-outs stand apart in the source and are kept apart here. Marks after values point to notes of the source that are not given here.

Experiments:
RBC AChE [1] = assay: TEF-coded PBK model-based reverse dosimetry, predicted in vivo RBC AChE inhibition, rat; conditions: for Predicted BMDL10 for rat pups: adult rat predicted BMDL10 corrected by factor 2 (Padilla et al. 2004)
From the text: The PBK model for DZN was developed based on the model from Poet et al. ([2004]) with some modifications for both rat and human. The model contains a submodel for the metabolite DZO and was defined to include compartments for rapidly perfused tissue, slowly perfused tissue, liver, fat and blood for both the parent compound DZN and its metabolite DZO. The model also contains a compartment to describe the urinary elimination of the metabolites IMHP and DAP (sum of DEP and DETP). In the currently developed model, oral exposure was included since we aimed at defining a POD for risk assessment of exposure via food and drinking water, and intravenous (IV) exposure was included for model evaluation. The fractional absorption (fa) was set equal to literature reported values, being 0.8 in rat (Poet et al. [2004]) and 0.66 in human (Garfitt et al. [2002]) and applied to the overall dose. The absorption of DZN from the stomach into the liver was described using a two-compartment gastrointestinal tract model as reported by Poet et al. ([2004]), with a first-order rate constant for absorption of DZN from the stomach into the liver (KaS) of 0.1 /h for rat and 0.32/h for human (Poet et al. [2004]), a first-order rate constant for transfer of DZN from the stomach into the intestine (KsI) of 0.48/h for both rat and human, a first-order rate constant for absorption DZN from the intestine into the liver (KaI) of 0.59/h for both rat and human, (Poet et al. [2004]), and Ke values for the elimination of IMHP or DAP (sum of DEP and DETP) into the urine amounting to Ke IMHP = 0.29/h, Ke DEP = 0.29 /h and Ke DETP = 0.29/h for rat (Poet et al. [2004]), and Ke IMHP = 12/h, Ke DEP = 12 /h and Ke DETP = 12/h for human (Garfitt et al. [2002]; Poet et al. [2004]).
The physiological parameters for rat and human were obtained from Brown et al. ([1997]) as well as Gearhart et al. ([1990]), and are summarised in Table 1. […] The kinetic parameters for biotransformation of DZN in rat and human were obtained by conducting in vitro liver microsomal/plasma incubations as described in the section “In vitro metabolic incubations for deriving kinetic parameters”. […] The first-pass metabolism of DZN by the intestine was not taken into account in the current model because the metabolic conversion in the intestine derived from the conversion in incubations with intestinal microsomes upon scaling to the whole organ, appeared less than 5% of that obtained in a similar way for the liver (data not shown). […] The Km values determined in vitro were assumed to be equal to in vivo Km values. […]

[2] = human; ref Poklis et al. 1980; cited from earlier work
[3] = assay type: in vitro ADME; conditions: intestinal microsomes, data not shown
Experimental: The physiological parameters for rat and human were obtained from Brown et al. ([1997]) as well as Gearhart et al. ([1990]), and are summarised in Table 1. […] The kinetic parameters for biotransformation of DZN in rat and human were obtained by conducting in vitro liver microsomal/plasma incubations as described in the section “In vitro metabolic incubations for deriving kinetic parameters”. […] The first-pass metabolism of DZN by the intestine was not taken into account in the current model because the metabolic conversion in the intestine derived from the conversion in incubations with intestinal microsomes upon scaling to the whole organ, appeared less than 5% of that obtained in a similar way for the liver (data not shown). […] To scale the in vitro Vmax values to the in vivo situation, the following scaling factors were used; 35 mg microsomal protein/g liver for rat hepatic metabolism (Medinsky et al. [1994]), 32 mg microsomal protein/g liver for human hepatic metabolism (Barter et al. [2007]), 77 mg plasma protein/ml plasma (total plasma protein concentration) for human plasma metabolism, and 60 mg plasma protein/ml plasma (total plasma protein concentration) for rat plasma metabolism. Plasma volume in rat and human were assumed as 55% of their corresponding blood volume (O'Neil [1999]). The Km values determined in vitro were assumed to be equal to in vivo Km values. […]

[4] = biological target: T1, recombinant human AChE (rhAChE) (Homo sapiens, UniProt P22303); assay: biochemical
T1 construct: purchased Sigma-Aldrich Co
Experimental: However, since recombinant rat AChE was not commercially available, extracted rat RBC AChE was used. […] The concentration of DTNB was calculated based on the concentration ratio (ATC/DTNB) of 2 (Stern et al. [2014]). […] To initiate the inhibition reaction, 1 µl rhAChE or rat AChE (final concentration 0.6 mU/ml) was added to the incubation. The total incubation volume was 50 µl. After 15 min incubation at 37℃, 150 µl reaction reagents (mixture of ATC at a final concentration of 150 µM and DTNB at a final concentration of 75 µM) were added into each well. The final total volume of each well was 200 µl. Subsequently, the 96-well plate was measured continuously for 10 min at absorbance 412 nm at 37℃ to quantify the remaining AChE activity.
The rhAChE and rat AChE activity were expressed as the remaining AChE activity relative to solvent control (100% activity) and positive control (0% activity) based on Eq. (2):2 AChEactivity\%=A412t10-t0testcompound-A412t10-t0positivecontrol/A412t10-t0solventcontrol-A412t10-t0positivecontrol×100\% , where the A412(t10 − t0)test compound is the change in the absorbance at A412 nm between 0 and 10 min for the test compound, the A412(t10 − t0)positive control is the change in the absorbance at A412 nm between 0 and 10 min for the CPO sample, and the A412(t10 − t0)solvent control is the change in the absorbance at A412nm between 0 and 10 min for the 0.2% ethanol sample.

[5] = rat, ref Poet et al. 2004, cited from earlier work
[6] = human, cited from earlier work
RBC AChE [7] = assay: TEF-coded PBK model-based reverse dosimetry, predicted in vivo RBC AChE inhibition, human
From the text: The PBK model for DZN was developed based on the model from Poet et al. ([2004]) with some modifications for both rat and human. The model contains a submodel for the metabolite DZO and was defined to include compartments for rapidly perfused tissue, slowly perfused tissue, liver, fat and blood for both the parent compound DZN and its metabolite DZO. The model also contains a compartment to describe the urinary elimination of the metabolites IMHP and DAP (sum of DEP and DETP). In the currently developed model, oral exposure was included since we aimed at defining a POD for risk assessment of exposure via food and drinking water, and intravenous (IV) exposure was included for model evaluation. The fractional absorption (fa) was set equal to literature reported values, being 0.8 in rat (Poet et al. [2004]) and 0.66 in human (Garfitt et al. [2002]) and applied to the overall dose. […]
The physiological parameters for rat and human were obtained from Brown et al. ([1997]) as well as Gearhart et al. ([1990]), and are summarised in Table 1. […] The Km values determined in vitro were assumed to be equal to in vivo Km values. […]

natural human RBC AChE = conditions: ref Fakhri-Bafghi et al. 2016; cited from earlier work

T1 sequence (P22303 32-614): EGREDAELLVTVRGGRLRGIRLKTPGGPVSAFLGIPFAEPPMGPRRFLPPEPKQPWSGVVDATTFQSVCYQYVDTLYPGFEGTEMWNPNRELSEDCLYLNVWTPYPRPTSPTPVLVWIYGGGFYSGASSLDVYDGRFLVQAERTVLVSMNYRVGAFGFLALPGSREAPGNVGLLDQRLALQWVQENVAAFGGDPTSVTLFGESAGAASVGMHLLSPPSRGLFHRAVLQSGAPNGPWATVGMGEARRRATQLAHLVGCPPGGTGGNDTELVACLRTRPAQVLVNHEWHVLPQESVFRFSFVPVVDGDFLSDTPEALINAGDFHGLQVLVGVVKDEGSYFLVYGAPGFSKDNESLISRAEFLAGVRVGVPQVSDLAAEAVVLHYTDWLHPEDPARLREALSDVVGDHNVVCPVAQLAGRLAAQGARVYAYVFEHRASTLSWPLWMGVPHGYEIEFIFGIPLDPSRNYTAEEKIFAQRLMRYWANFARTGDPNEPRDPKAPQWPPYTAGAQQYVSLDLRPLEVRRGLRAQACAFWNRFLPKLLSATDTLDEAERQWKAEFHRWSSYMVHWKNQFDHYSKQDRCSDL

SMILES: CCOP(=S)(OCC)Oc1cc(C)nc(C(C)C)n1 [DZN, O,O-diethyl O-2-isopropyl-6-methylpyrimidin-4-yl phosphorothioate]
- corrected POD (rat pups) higher than POD used by the EPA (RBC AChE [1]): 2.1 fold
- predicted rat BMDL10 higher than reported BMDL10 for inhibition of RBC AChE (RBC AChE [1]): 2.6 fold
- Predicted BMDL10 for rat pups (RBC AChE [1]): 6.3 mg/kg bw
- Predicted BMDL10 for rat pups (RBC AChE [1]; listed as Diazinon): 6.3^a mg/kg bw
- toxic dose level reported [2]: 293 mg/kg bw
- metabolic conversion in the intestine scaled to the whole organ, relative to that for the liver [3]: less than 5%
- lower AChE inhibitory potency of DZN than of DZO [4]: around 300 fold
- IC50 ([4]; rhAChE, 15 min incubation at 37℃, read-out: IC50 for inhibition of AChE activity): 14.3 µM
- fractional absorption (fa) ([5]; oral): 0.8
- first-order rate constant for absorption from the intestine into the liver (KaI) [5]: 0.59 h⁻¹
- first-order rate constant for absorption from the stomach into the liver (KaS) [5]: 0.1 h⁻¹
- first-order rate constant for transfer from the stomach into the intestine (KsI) [5]: 0.48 h⁻¹
- fractional absorption (fa) ([6]; oral, ref Garfitt et al. 2002): 0.66
- first-order rate constant for absorption from the intestine into the liver (KaI) ([6]; ref Poet et al. 2004): 0.59 h⁻¹
- first-order rate constant for absorption from the stomach into the liver (KaS) ([6]; ref Poet et al. 2004): 0.32 h⁻¹
- first-order rate constant for transfer from the stomach into the intestine (KsI) ([6]; ref Poet et al. 2004): 0.48 h⁻¹
- predicted BMDL10 for human lower than that for rat (RBC AChE [7]): 6 fold
- IC50 (natural human RBC AChE): 24.4 µM
